The results in this text go back to patent US20260007639A1, “COMPOUNDS FOR THE TREATMENT OF NEUROMUSCULAR DISORDERS” (NMD PHARMA A/S, priority 2017, published 2026).

Where two headings read alike, the source gives them in different places.

The target in one assay is T1, CIC-1 channels (Rattus norvegicus, UniProt P35524).
T1 sequence (P35524 1-994): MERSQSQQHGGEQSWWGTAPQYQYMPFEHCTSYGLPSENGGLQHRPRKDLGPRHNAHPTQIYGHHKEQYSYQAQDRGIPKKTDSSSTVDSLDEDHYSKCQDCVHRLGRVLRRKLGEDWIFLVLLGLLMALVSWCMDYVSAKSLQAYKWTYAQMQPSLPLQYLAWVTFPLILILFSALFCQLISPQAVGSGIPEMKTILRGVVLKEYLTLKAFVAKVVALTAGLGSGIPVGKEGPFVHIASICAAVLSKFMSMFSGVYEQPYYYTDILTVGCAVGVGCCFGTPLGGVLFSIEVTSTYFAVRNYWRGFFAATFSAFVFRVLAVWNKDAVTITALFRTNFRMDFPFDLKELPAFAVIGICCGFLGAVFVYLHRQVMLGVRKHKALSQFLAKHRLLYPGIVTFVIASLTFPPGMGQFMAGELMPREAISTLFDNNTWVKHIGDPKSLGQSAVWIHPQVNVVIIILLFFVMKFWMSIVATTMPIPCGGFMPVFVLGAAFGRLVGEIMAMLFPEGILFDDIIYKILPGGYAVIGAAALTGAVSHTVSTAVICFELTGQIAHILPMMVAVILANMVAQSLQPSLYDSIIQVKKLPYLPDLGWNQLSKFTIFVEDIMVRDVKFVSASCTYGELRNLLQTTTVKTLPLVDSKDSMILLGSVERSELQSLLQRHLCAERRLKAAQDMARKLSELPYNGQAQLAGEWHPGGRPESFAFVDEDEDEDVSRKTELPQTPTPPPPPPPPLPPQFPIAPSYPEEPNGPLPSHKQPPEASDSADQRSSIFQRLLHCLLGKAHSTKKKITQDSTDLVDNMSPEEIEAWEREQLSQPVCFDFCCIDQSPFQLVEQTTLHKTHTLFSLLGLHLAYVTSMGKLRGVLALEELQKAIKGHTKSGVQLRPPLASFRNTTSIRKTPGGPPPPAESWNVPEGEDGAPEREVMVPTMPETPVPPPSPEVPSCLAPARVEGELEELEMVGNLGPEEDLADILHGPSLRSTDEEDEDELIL
The assay is described as follows: Electrophysiological measurement of compound inhibition of CIC-1 (Gm) in rat soleus muscle fibres: EC50 (Table 7).

Assay [1] deals with rat soleus muscles. As to the kind of experiment: Recovery of force in isolated rat soleus nerve-muscle preparations after 115 nM tubocurarine, 50 μM compound (Table 8). The conditions noted are these: 40 mins exposure. On the procedure:
Force traces from a representative muscle stimulated to contract in 1) control condition before addition of neuromuscular blocking agent, 2) the force response to stimulation after 90 minutes incubation with Tubocurarine. […] The traces presented in FIG. 12A (1, 2, 3), correspond to the dotted lines in FIG. 12B, respectively.
Recovery of force is quantified as the percentage of the force prior to tubocurarine that is recovered by the compound.
The current invention relates to compounds that inhibit CIC-1 ion channels and increase muscle excitability and thereby improve muscle function in clinical conditions where muscle activation is failing. Such conditions result in loss of contractile function of skeletal muscle, weakness and excessive fatigue. In this series of experiments the compounds were tested for their ability to restore contractile function of isolated rat muscle when the neuromuscular transmission had been compromised akin to neuromuscular disorders.
Experimentally, soleus muscles from 4-5 wk old rats were isolated with the motor nerve remaining attached. The nerve-muscle preparations were mounted in experimental setups that enabled electrical stimulation of the motor nerve. Stimulation of the motor nerve led to activation of the muscle fibres and ensuing force production that was recorded.
After mounting the nerve-muscle preparation in the experimental setup, the contractile function of the muscle was initially assessed under the control conditions (FIG. 2A). […] The experimental condition mimics the failing neuromuscular transmission in a range of neuromuscular disorders. After addition of tubocurarine the contractile force declined over the next 90 mins to 10-50% of the control force. 50 μM of the test compound was then added and the contractile force recovered despite the continued presence of tubocurarine. To quantify the ability of the compound to restore force the percentage of the initial force that was restored was determined after 40 mins of compound exposure (FIG. 2B) and the point increase is reported in Table 8.

In another assay the target is T2, human CIC-1 channels (Homo sapiens, UniProt P35523).
T2 construct: host or cells: CHO (Chinese hamster ovary) cells constitutively expressing human ClC-1
The assay is described as follows: Automated patch-clamp on human CIC-1 expressed in CHO cells: shift of half activation voltage ΔV1/2. The class given is cell-based. The following applies: compound in intracellular solution vs control cell patches; CHO cells expressing human CIC-1. On the procedure: FIGS. 13A-13B: FIG. 13A illustrates the voltage protocol used to evoke currents in whole cell patches of CHO cells expressing human CIC-1 channels.
Experiments were performed using an automated patch clamp system that allowed high throughput testing of whole cell patches together with both intracellular and extracellular addition of compound.
Automated whole cell patch clamp experiments were performed with the Qpatch 16 system (Sophion Bioscience, Ballerup, Denmark) at room temperature. Data acquisition and analysis were performed in the Qassay software (ver. 5.6, Odense).
To evoke CIC-1 currents in whole cell patches, the membrane potential was initially stepped from a holding potential of −30 mV to +60 mV for 100 ms and then to various test voltages (sweeps) ranging from +120 mV to −140 mV in steps of 20 mV for 300 ms. To obtain tail currents, the membrane potential was stepped to −100 mV after each test voltage for 300 ms and then relaxed to −30 mV for 2 sec between sweeps (FIG. 3).
I/V relationships for whole cell instant and steady state current amplitudes were obtained by plotting average current densities at the beginning and at the end of the 300 ms step against the membrane potential (FIG. 4).
In order to determine the relative overall open probability (Po), the instantaneous tail currents were normalized to the maximal tail current obtained following the most positive voltage step and plotted against the test voltage. Plots of normalized tail currents from each whole cell patch were then fitted to a Boltzmann function allowing determination of half activation voltages (V1/2, FIG. 5).
For automated patch clamp experiments extracellular solutions contained: 2 mM CaCl2), 1 mM MgCl2, 10 mM HEPES, 4 mM KCl, 145 mM NaCl, 10 mM Glucose, pH adjusted to 7.4 with NaOH (2 M). Osmolality adjusted to ˜320 using sucrose.
Intracellular solutions contained: 80 mM CsF, 60 mM CsCl, 5/1 mM KOH/EGTA, 10 mM HEPES, 10 mM NaCl, pH adjusted to 7.2 with NaOH (2 M). Osmolality adjusted to ˜320 mOsm using sucrose.
Cells used in patch clamp experiments were Chinese hamster ovary cells (CHO) constitutively expressing human CIC-1 channels. The amino acid sequence encoded by the cDNA used to create this cell line was identical to the translated sequence for GenBank accession number NM_000083.2. Cells were produced by Charles River (Catalogue CT6175, Cleveland OH, USA) in a cryopreserved format. Experiments were performed on the cells directly after thawing (3×10^6 cells used in each experiment).
To evaluate the compound effect on CIC-1, when applied directly to the intracellular side of the cell membrane, the half activation voltage, V1/2, was determined from whole cell patches with compound added to the intracellular solution and then compared to V1/2 determined from control cell patches with only vehicle added to the intracellular solution. Additionally, the effect of extracellular added compound was evaluated by determine V1/2 and steady state current amplitudes before and after exchanging the extracellular solution to contain compound.
The difference in half activation voltage of CIC-1 channels, ΔV1/2, was determined as the difference between the cell patches treated intracellularly with compound and control cells patches and is reported in Table 4 below. A positive shift in ΔV 1/2 is reflecting CIC-1 channel inhibition by the tested compound. P-values of <0.05 is considered significant.

For assay [2], the system named is rat soleus muscles. The assay is described as follows: Recovery of nerve-stimulated force in isolated rat soleus muscles exposed to sub-maximal tubocurarine (Table 1). The following applies: for 500 μM % change after addition (AUC force): 500 μM compound. On the procedure: The motor nerve was stimulated every 10 min for 2 s with 30 Hz with field stimulation using short duration pulses. […] Traces are shown before addition tubocurarine, after 40 min with tubocurarine, and after 110 min tubocurarine. […] This recovery of force was used in Table 1.
Experiments were performed using rat soleus muscles from either young (4-wk-old) or adult Wistar rats (12-14-week-old). Animal handling, killing and isolation of muscle is described elsewhere All experiments were performed using normal Krebs-Ringer bicarbonate solution (NKR). In solutions with elevated Mg^2+, MgCl^2 was added to NKR-solution causing minor increases in osmolarity and ionic strength. In solutions with elevated K^+, 4 mM NaCl was replaced by 4 mM KCl in the NKR.
In all contraction experiments, isometric force production was determined and force produced during contractions was quantified by measuring the integral of the force response (AUC). Stimulation and force recordings have been described elsewhere. […] In these latter experiments, extracellular recordings of action potentials (M-waves) could be measured without temporal overlap with stimulation artefacts.
The aim was to find compounds that by inhibition of CIC-1 channels can recover nerve-stimulated force under conditions of fatigue including conditions where fatigue is caused by compromised neuromuscular transmission. Neuromuscular transmission dysfunction can develop because of both pre- and/or post-synaptic complications in connection with a disorder or as part of neuromuscular blockade during/after surgery. In the initial series of drug testing, experiments were performed with isolated muscles in the presence of sub-maximal ACh receptor antagonist tubocurarine. Since the inclusion of tubocurarine caused a partial loss of neuromuscular transmission this experiment mimics the conditions in myasthenia gravis and neuromuscular blockade. To mimic conditions with pre-synaptic complication (Lambert Eaton syndrome, motor neuron disorder, polyneuropathy) the intact nerve-muscle preparations were incubated at elevated extracellular Mg^2+, which is known to suppress release of ACh from nerve terminals of motor neurons. […]
For comparison with the muscle only exposed to tubocurarine (grey trace), the two traces have been overlaid. […] For comparison, muscles only exposed to tubocurarine have been included. The dotted line indicates the recovery of force with C8 when compared to the force production before its addition. This value was used in Table 1 for evaluation of the efficacy of the different compounds in recovering force.

Setting [3] is: 150 μM compound, % change in AUC compared to AUC before addition, after 40 min in tubocurarine.
Where [4] appears, read: % change in AUC compared to AUC before addition, after 40 min in tubocurarine.

T2 sequence (P35523 whole entry): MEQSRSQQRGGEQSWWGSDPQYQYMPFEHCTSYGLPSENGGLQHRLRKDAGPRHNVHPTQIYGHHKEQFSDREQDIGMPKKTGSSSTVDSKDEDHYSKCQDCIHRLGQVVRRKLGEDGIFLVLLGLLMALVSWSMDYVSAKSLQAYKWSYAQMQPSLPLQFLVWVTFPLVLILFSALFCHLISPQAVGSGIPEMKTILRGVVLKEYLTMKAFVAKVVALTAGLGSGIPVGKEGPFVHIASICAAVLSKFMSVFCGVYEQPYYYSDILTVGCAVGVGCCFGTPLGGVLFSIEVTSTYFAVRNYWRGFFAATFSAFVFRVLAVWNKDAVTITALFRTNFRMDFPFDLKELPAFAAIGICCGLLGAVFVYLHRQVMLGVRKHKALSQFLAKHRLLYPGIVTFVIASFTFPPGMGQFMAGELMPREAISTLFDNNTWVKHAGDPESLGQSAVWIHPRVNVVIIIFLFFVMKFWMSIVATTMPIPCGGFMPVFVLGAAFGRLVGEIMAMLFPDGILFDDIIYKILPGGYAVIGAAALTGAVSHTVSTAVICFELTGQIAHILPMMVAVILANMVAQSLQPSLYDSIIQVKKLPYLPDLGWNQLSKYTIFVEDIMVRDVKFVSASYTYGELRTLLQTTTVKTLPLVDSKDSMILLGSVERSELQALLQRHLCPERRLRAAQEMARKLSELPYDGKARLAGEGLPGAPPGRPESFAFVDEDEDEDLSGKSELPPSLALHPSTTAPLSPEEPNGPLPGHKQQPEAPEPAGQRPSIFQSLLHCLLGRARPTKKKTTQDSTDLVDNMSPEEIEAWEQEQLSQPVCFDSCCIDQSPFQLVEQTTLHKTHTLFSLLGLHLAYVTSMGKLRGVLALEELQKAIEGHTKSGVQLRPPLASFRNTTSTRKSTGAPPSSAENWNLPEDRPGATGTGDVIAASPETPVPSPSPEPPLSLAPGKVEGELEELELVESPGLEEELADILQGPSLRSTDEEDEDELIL

Usually EC50 stands for the midpoint of the concentration-response curve. `CC[C@H](Oc1ccc(Br)cc1-c1ccon1)C(=O)O` [Compound A-2, (2S)-2-[4-bromo-2-(1,2-oxazol-3-yl)phenoxy]butanoic acid] gave an EC50 on CIC-1 channels of 4.3 µM. For the same compound, the “Point increase (%) of initial force that was restored” value (shortened to “Point increase (%)”) with rat soleus muscles [1] was determined as 27%. The “Δ1/2 (mV)” value on human CIC-1 channels is 7.2 mV.
As for `C[C@H](Oc1ccc(Br)cc1-c1ccon1)C(=O)O` [Compound A-16, (2S)-2-[4-bromo-2-(1,2-oxazol-3-yl)phenoxy]propanoic acid], at CIC-1 channels, a half-maximal effect (EC50) was put at 1.8 ± 1.1 µM. In addition, the “Point increase (%)” value with rat soleus muscles [1] stood at 48%. The “Δ1/2 (mV)” value at human CIC-1 channels amounted to 14.1 mV.
Regarding `C[C@H](Oc1ccc(Cl)cc1-c1csnn1)C(=O)O` [Compound A-62, (2S)-2-[4-chloro-2-(1,2,3-thiadiazol-4-yl)phenoxy]propanoic acid], the EC50 on CIC-1 channels is 9.4 µM. In addition, the “Point increase (%)” value in the assay on rat soleus muscles [1] was found to be 17%.
On CIC-1 channels, `O=C(O)[C@H](CF)Oc1cc(F)c(Br)cc1-c1ccon1` [Compound A-63, (2R)-2-[4-bromo-5-fluoro-2-(1,2-oxazol-3-yl)phenoxy]-3-fluoropropanoic acid] yielded a concentration for a half-maximal effect (EC50) of 10.8 µM. Also, in the assay with rat soleus muscles [1], the “Point increase (%)” value amounted to 23%.
As for `C[C@H](Oc1ccc(Br)cc1-c1nncs1)C(=O)O` [Compound A-65, (2S)-2-[4-bromo-2-(1,3,4-thiadiazol-2-yl)phenoxy]propanoic acid], on human CIC-1 channels, the “Δ1/2 (mV)” value worked out at 12.8 mV.
As for `O=C(O)COc1ccc(Br)cc1-c1ccno1` [Compound A-69, 2-[4-bromo-2-(1,2-oxazol-5-yl)phenoxy]acetic acid], on CIC-1 channels, the EC50 was 7.8 µM. In the assay on rat soleus muscles [1], the “Point increase (%)” value was determined as 15%.
The like results for `O=C(O)[C@H](CC1CCC1)Oc1ccc(Br)cc1-c1ccon1` [Compound A-71, (2S)-2-[4-bromo-2-(1,2-oxazol-3-yl)phenoxy]-3-cyclobutylpropanoic acid] were, in that order, 6.5 µM and 15%.
Regarding `C[C@H](Oc1ccc(Cl)cc1-c1ccsn1)C(=O)O` [Compound A-83, (2S)-2-[4-chloro-2-(1,2-thiazol-3-yl)phenoxy]propanoic acid], the “Δ1/2 (mV)” value on human CIC-1 channels was 10.3 mV.
Consider `C[C@H](OCc1ccccc1)C(=O)O` [Compound C5, (2S)-2-(benzyloxy)propanoic acid], for which the “150 μM % change after addition (AUC force)” value (from here on “150 μM % change”) in the assay with rat soleus muscles [2] (setting [3]) amounted to 1%. The “500 μM % change after addition (AUC force)” value (from here on “500 μM % change”) in the assay with rat soleus muscles [2] (setting [4]) is 42%.
As to `CC(C(=O)O)S(=O)(=O)c1ccc(F)cc1` (stereo not shown) [Compound C6, 2-(4-fluorobenzenesulfonyl)propanoic acid], the “150 μM % change” value with rat soleus muscles [2] (setting [3]) was −8%. Moreover, the “500 μM % change” value in the assay with rat soleus muscles [2] (setting [4]) is given as 9%.
With `CCC(Oc1ccc(Cl)cc1)C(=O)O` (stereo not shown) [Compound C7, 2-(4-chlorophenoxy)butanoic acid], the “150 μM % change” value in the assay on rat soleus muscles [2] (setting [3]) is recorded as 0%. Moreover, in the assay on rat soleus muscles [2] (setting [4]), the “500 μM % change” value worked out at 40%.
Regarding `Cl.NCC(Oc1ccc(F)cc1)C(=O)O` (stereo not shown) [Compound C9, 3-amino-2-(4-fluorophenoxy)propanoic acid hydrochloride], in the assay on rat soleus muscles [2] (setting [3]), the “150 μM % change” value is −13%. Besides, in the assay with rat soleus muscles [2] (setting [4]), the “500 μM % change” value is on record as 5%.
For `CC(Oc1ccc(Cl)cc1)C(=O)Oc1ccc(Cl)cc1` (stereo not shown) [Compound C11, 4-chlorophenyl 2-(4-chlorophenoxy)propanoate], in the assay with rat soleus muscles [2], the “50 μM % change after addition (AUC force)” value is recorded as 46% and the “150 μM % change” value amounted to 54%.
Take `COCC(C)C(Oc1ccc(Br)cc1)C(=O)O` (stereo not shown) [Compound C21, 2-(4-bromophenoxy)-4-methoxy-3-methylbutanoic acid]: in the assay on rat soleus muscles [2] (setting [3]), the “150 μM % change” value amounted to 7%. Besides, in the assay with rat soleus muscles [2] (setting [4]), the “500 μM % change” value is listed as 36%.
